Assay results taken from patent publication US6492174B1, “Methods of initiating embryogenic cultures in plants” (Institute of Paper Science & Technology, priority 2000, dated 2002).

Tests used:
[1] = tested on: Loblolly pine megagametophytes; assay: Loblolly pine extrusion and initiation on solid media #945 with brassinolide, eight weeks; format: cell-based
Method: In each replicate set of ten explants, the frequency of extrusion was measured as the number of extrusions per ten megagametophytes. A successful extrusion was scored where a filamentous mass of tissue that had emerged from the megagametophyte was clearly visible. Initiation was also scored at the end of the 8th week. In each replicate set of ten explants, the frequency of initiation was recorded as the number of successful initiations out of the ten megagametophytes. A successful initiation was scored where the extruded tissue had clearly proliferated and at least one somatic embryo was visible. Often, visualization was aided by the fact that the zygotic tissue was brownish while new somatic embryos were whitish and translucent. Also, somatic embryos could often be seen growing directly from zygotic embryos.
This experiment measured the effects of varying concentrations of brassinolide on extrusion and initiation in Loblolly pine. The explants in this experiment were megagametophytes isolated from cone collections from four open-pollinated trees, representing a multiplicity of genotypes. The seeds contained Stage 2-4 zygotic embryos. Seeds were sterilized as described in Example 1. Seed coats were split and the megagametophytes were isolated by removing integuments and nucellus. Isolated megagametophytes were placed on solid media. […] The treatment media consisted of media #945 with added brassinolide varying from 0.005 to 0.1 μM (Table 10). The experiment consisted of three replications per treatment, per genotype.
Initiation frequency was increased by the addition of brassinolide at all concentrations (Table 12). There was no clear concentration effect within the tested range. […] One of skill in the art could empirically determine the upper and lower effective concentration of brassinolide which is effective in promoting initiation.

[2] = tested on: cultured cells of Onosma paniculatum; details: media containing 0.01 ppb brassinolide; cited from earlier work

SMILES: CC(C)[C@H](C)[C@@H](O)[C@H](O)[C@@H](C)[C@H]1CC[C@H]2[C@@H]3COC(=O)[C@H]4C[C@H](O)[C@H](O)C[C@]4(C)[C@H]3CC[C@]12C [brassinolide]
- Initiation frequency vs control ([1]; brassinolide at all concentrations (0.005 to 0.1 μM)): increased
- % of Megagametophytes Extruding ([1]; genotype FC, 0.005 μM Br): 40.0 (5.8) %
- % of Megagametophytes Initiating ([1]; genotype FC, 0.005 μM Br): 0 (0) %
- % of Megagametophytes Extruding ([1]; genotype FC, 0.01 μM Br): 20.0 (5.8) %
- % of Megagametophytes Initiating ([1]; genotype FC, 0.01 μM Br): 6.7 (3.3) %
- % of Megagametophytes Extruding ([1]; genotype FC, 0.025 μM Br): 40.0 (5.8) %
- % of Megagametophytes Initiating ([1]; genotype FC, 0.025 μM Br): 0 (0) %
- % of Megagametophytes Extruding ([1]; genotype FC, 0.05 μM Br): 26.7 (3.3) %
- % of Megagametophytes Initiating ([1]; genotype FC, 0.05 μM Br): 0 (0) %
- % of Megagametophytes Extruding ([1]; genotype FC, 0.1 μM Br): 31.8 (16.5) %
- % of Megagametophytes Initiating ([1]; genotype FC, 0.1 μM Br): 3.7 (3.7) %
- % of Megagametophytes Extruding ([1]; genotype FT, 0.005 μM Br): 96.7 (3.3) %
- % of Megagametophytes Initiating ([1]; genotype FT, 0.005 μM Br): 53.3 (12.0) %
- % of Megagametophytes Extruding ([1]; genotype FT, 0.01 μM Br): 86.7 (8.8) %
- % of Megagametophytes Initiating ([1]; genotype FT, 0.01 μM Br): 43.3 (16.7) %
- % of Megagametophytes Extruding ([1]; genotype FT, 0.025 μM Br): 93.3 (6.7) %
- % of Megagametophytes Initiating ([1]; genotype FT, 0.025 μM Br): 46.7 (12.0) %
- % of Megagametophytes Extruding ([1]; genotype FT, 0.05 μM Br): 93.3 (3.3) %
- % of Megagametophytes Initiating ([1]; genotype FT, 0.05 μM Br): 53.3 (8.8) %
- % of Megagametophytes Extruding ([1]; genotype FT, 0.1 μM Br): 86.7 (3.3) %
- % of Megagametophytes Initiating ([1]; genotype FT, 0.1 μM Br): 50 (3.3) %
- % of Megagametophytes Extruding ([1]; genotype FW, 0.005 μM Br): 83.3 (8.8) %
- % of Megagametophytes Initiating ([1]; genotype FW, 0.005 μM Br): 20 (5.8) %
- % of Megagametophytes Extruding ([1]; genotype FW, 0.01 μM Br): 50.0 (10.0) %
- % of Megagametophytes Initiating ([1]; genotype FW, 0.01 μM Br): 3.3 (3.3) %
- % of Megagametophytes Extruding ([1]; genotype FW, 0.025 μM Br): 64.8 (13.4) %
- % of Megagametophytes Initiating ([1]; genotype FW, 0.025 μM Br): 20.7 (11.6) %
- % of Megagametophytes Extruding ([1]; genotype FW, 0.05 μM Br): 70.0 (11.5) %
- % of Megagametophytes Initiating ([1]; genotype FW, 0.05 μM Br): 13.3 (8.8) %
- % of Megagametophytes Extruding ([1]; genotype FW, 0.1 μM Br): 73.3 (8.8) %
- % of Megagametophytes Initiating ([1]; genotype FW, 0.1 μM Br): 30 (5.8) %
- % of Megagametophytes Extruding ([1]; genotype FX, 0.005 μM Br): 53.3 (8.8) %
- % of Megagametophytes Initiating ([1]; genotype FX, 0.005 μM Br): 26.7 (8.8) %
- % of Megagametophytes Extruding ([1]; genotype FX, 0.01 μM Br): 63.3 (14.5) %
- % of Megagametophytes Initiating ([1]; genotype FX, 0.01 μM Br): 33.3 (12.0) %
- % of Megagametophytes Extruding ([1]; genotype FX, 0.025 μM Br): 70.0 (5.8) %
- % of Megagametophytes Initiating ([1]; genotype FX, 0.025 μM Br): 23.3 (3.3) %
- % of Megagametophytes Extruding ([1]; genotype FX, 0.05 μM Br): 73.3 (8.8) %
- % of Megagametophytes Initiating ([1]; genotype FX, 0.05 μM Br): 43.3 (6.7) %
- % of Megagametophytes Extruding ([1]; genotype FX, 0.1 μM Br): 76.7 (8.8) %
- % of Megagametophytes Initiating ([1]; genotype FX, 0.1 μM Br): 36.7 (8.8) %
- concentrations at which brassinolide was effectively used ([1]; in our media): 0.005 to 0.25 µM
- % of Megagametophytes Extruding ([1]; total, 0.005 μM Br): 68.3%
- % of Megagametophytes Initiating ([1]; total, 0.005 μM Br): 25.0%
- % of Megagametophytes Extruding ([1]; total, 0.01 μM Br): 55.0%
- % of Megagametophytes Initiating ([1]; total, 0.01 μM Br): 21.7%
- % of Megagametophytes Extruding ([1]; total, 0.025 μM Br): 67.0%
- % of Megagametophytes Initiating ([1]; total, 0.025 μM Br): 22.7%
- % of Megagametophytes Extruding ([1]; total, 0.05 μM Br): 65.8%
- % of Megagametophytes Initiating ([1]; total, 0.05 μM Br): 27.5%
- % of Megagametophytes Extruding ([1]; total, 0.1 μM Br): 67.1%
- % of Megagametophytes Initiating ([1]; total, 0.1 μM Br): 30.1%
- growth of cultured cells [2]: slightly increased growth
